Assay results published in patent US4010264A, “7-[3-Substituted isoxazol-5-yl]-acetamido-cephalosporanic acids and their anti-bacterial use” (Koninklijke Nederlandsche Gist-en Spiritusfabriek N.V., priority 1970, dated 1977).
In brackets after ≈: the same amount, converted by molar mass. Structures can show the parent of a compound that is named as a salt. Where two headings read alike, the source gives them in different places.

Columns and labels:
[1] = test system: Staphylococcus aureus A355 (penicillinase-producing); test: MIC, agar serial dilution test; details: 24 h
[2] = test system: Salmonella typhi murium R 172; test: in vivo infection test in mice; details: Salmonella enterica, in Mus musculus
[3] = test system: Streptococcus haemolyticus A266; test: MIC, agar serial dilution test; assay type: cell-based
[4] = test system: Klebsiella pneumoniae A809; test: MIC, agar serial dilution test; assay type: cell-based
[5] = test system: Staphylococcus aureus A 2000; test: in vivo infection test in mice; details: A2000, in Mus musculus
[6] = test system: Staphylococcus aureus A55; test: MIC, agar serial dilution test; assay type: cell-based
[7] = test system: Staphylococcus aureus A321; test: MIC, agar serial dilution test; assay type: cell-based
[8] = test system: Staphylococcus aureus A 2001; test: in vivo infection test in mice; details: A2001, in Mus musculus
[9] = test system: Bacillus subtilis ATCC 6633; test: MIC, agar serial dilution test; assay type: cell-based
[10] = test system: Pasteurella multocida A723; test: MIC, agar serial dilution test; assay type: cell-based
[11] = test system: Diplococcus pneumoniae L 54; test: MIC, agar serial dilution test; assay type: cell-based; details: Streptococcus pneumoniae
[12] = test system: Pseudomonas aeruginosa A 1058; test: in vivo infection test in mice; details: A1058, in Mus musculus
[13] = test system: Brucella melitensis A488; test: microbe, parasite or virus in culture; assay type: cell-based; details: A488, 24 h
[14] = test system: Streptococcus faecalis L 80; test: MIC, agar serial dilution test; assay type: cell-based; details: Enterococcus faecalis
[15] = test system: Staphylococcus aureus L160a (penicillinase-producing); test: MIC, agar serial dilution test; details: 24 h
[16] = test system: Staphylococcus aureus A 321; test: in vivo infection test in mice; details: A321, in Mus musculus
[17] = test system: Proteus mirabilis O.T.; test: in vivo infection test in mice; details: in Mus musculus
[18] = test system: Staphylococcus aureus A 2001; test: protection test in mice, Staphylococcus aureus
[19] = blood (serum) contents after intramuscular administration in rabbits; assay type: in vivo, rabbits (Nieuw Zeelander); details: rabbit, im, 50 mg/kg intramuscular, average, read-out: Serum level
Experimental: (§1) c. […] The rabbits were provided with "Cunicon" and water ad libitum. Each test group consisted of 3 rabbits. The dose was 50 mg/kg using water as the vehicle. […] The contents of the compound in the samples were determined microbiologically (only microbiologically detected amounts, i.e. anti-bacterially active concentrations only have been indicated).

[20] = secretion of compound in urine after intramuscular administration in rabbits; assay type: in vivo, rabbits (Nieuw Zeelander); details: rabbit, im, 50 mg/kg intramuscular, average, read-out: Secretion of compound in urine in % of the administered dose
Experimental: as §1

[21] = percentages of bound serum by ultrafiltration and dialysis; assay type: in vitro ADME; details: read-out: percentage of bound serum (converted)
[22] = in vivo; details: mouse, ip
[23] = test system: Escherichia coli 65161; test: protection test in mice, Escherichia coli; assay type: in vivo, female mice (Swiss SPF)
[24] = Streptococcus haemolyticus A266, 24 hours at 37° C, read-out: MIC
[25] = Klebsiella pneumoniae A809, 24 hours at 37° C, read-out: MIC
[26] = Staphylococcus aureus A55, 24 hours at 37° C, read-out: MIC
[27] = Staphylococcus aureus A321, 24 hours at 37° C, read-out: MIC
[28] = ATCC6633, Bacillus subtilis ATCC 6633, 24 hours at 37° C, read-out: MIC
[29] = Pasteurella multocida A723, 24 hours at 37° C, read-out: MIC
[30] = L54, Diplococcus pneumoniae L 54, 24 hours at 37° C, read-out: MIC
[31] = L80, Streptococcus faecalis L 80, 24 hours at 37° C, read-out: MIC

Structure (SMILES) | MIC [1] [µg/mL] | ED50 ([2]; ip) [mg/kg] | MIC [3, 24] [µg/mL] | MIC [4, 25] [µg/mL] | ED50 ([5]; ip) [mg/kg] | MIC [6, 26] [µg/mL] | MIC [7, 27] [µg/mL] | ED50 ([8]; ip) [mg/kg] | ED50 ([8]; po) [mg/kg] | ED50 ([8]; sc) [mg/kg] | MIC [9, 28] [µg/mL] | MIC [10, 29] [µg/mL] | MIC [11, 30] [µg/mL] | MIC [13] [µg/mL] | MIC [14, 31] [µg/mL] | MIC [15] [µg/mL] | ED50 ([16]; ip) [mg/kg] | ED50 ([16]; po) [mg/kg] | ED50 ([16]; sc) [mg/kg] | ED50 ([17]; ip) [mg/kg] | other results
CC1(C)SC2C(NC(=O)Cc3cc(-c4c(Cl)cccc4Cl)no3)C(=O)N2C1C(=O)O (stereo not drawn) [Example I, Sodium salt of 6-{[3-(2,6-dichlorophenyl)isoxazol-5-yl]acetamido}-penicillanic acid] | 3 | > 215 | 0.007 | 100 | 133 | 0.01 | 0.015 | > 215 | > 215 | > 215 | 0.007 | 2 | 0.25 | 0.5 | 50 | 1 | 10.8 | 126 | 36.9 | – | ED50 ([5]; po): > 215 mg/kg; ED50 ([5]; sc): > 215 mg/kg; ED50 ([12]; ip): > 215 mg/kg
CC1=C(C(=O)O)N2C(=O)C(NC(=O)Cc3cc(-c4c(Cl)cccc4Cl)no3)C2SC1 (stereo not drawn) [Example IV, Sodium salt of 7{[3-(2,6-dichlorophenyl)isoxazol-5-yl]acetamido}desacetoxycephalosporanicacid] | 3 | > 215 | 0.5 | > 100 | 19.6 | 0.75 | 0.5 | 23.3 | ~200 | > 215 | 1 | 6 | 0.75 | 12.5 | – | 1.5 | 23.3 | 50.1 | 31.6 | > 215 | ED50 ([5]; po): > 215 mg/kg; ED50 ([5]; sc): > 215 mg/kg; ED50 ([12]; ip): > 215 mg/kg; MIC ([14]; L80, 24 h): 12.5 µg/mL
Cc1cc(C)c(-c2cc(C(Cl)C(=O)NC3C(=O)N4C3SC(C)(C)C4C(=O)O)on2)c(C)c1 (stereo not drawn) [Example IX, Cyclohexylamine salt of 6-{α-chloro-[3-(2,4,6-trimethyl)phenyl-isoxazol-5-yl]acetamido}penicillanic acid] | 25 | – | 0.06 | > 100 | – | 0.25 | 0.25 | – | – | – | 0.12 | 25 | 0.12 | 25 | 1.5 | 25 | > 21.5 | > 100 | – | – | –
CC1(C)S[C@@H]2C(NC(=O)Cc3onc(-c4c(Cl)cccc4Cl)c3C(=O)O)C(=O)N2[C@H]1C(=O)O (stereo partly drawn) [Example V, 6-{[3-(2,6-dichlorophenyl)-4-carboxyisoxazol-5-yl]acetamido}penicillanic acid] | 12.5 (≈ 24.3 µM) | – | 0.5 (≈ 0.972 µM) | > 100 | – | 1 (≈ 1.94 µM) | 1 (≈ 1.94 µM) | – | – | – | 0.5 (≈ 0.972 µM) | 1.5 (≈ 2.92 µM) | 6 (≈ 11.7 µM) | 25 (≈ 48.6 µM) | 25 (≈ 48.6 µM) | 3 (≈ 5.83 µM) | < 100 | > 215 | – | > 300 | ED50 ([17]; po): > 300 mg/kg
Cc1cc(C)c(-c2cc(C(C)C(=O)NC3C(=O)N4C3SC(C)(C)C4C(=O)O)on2)c(C)c1 (stereo not drawn) [Example XI, Cyclohexylamine salt of 6{α-methyl-[3-(2,4,6-trimethyl)phenylisoxazol-5-yl]acetamido}penicillanic acid] | 12.5 | – | 0.007 | 100 | – | 0.12 | 0.06 | – | – | – | 0.06 | 50 | 0.12 | 3 | 1.5 | 12.5 | > 21.5 | > 100 | – | > 300 | ED50 ([12]; po): > 300 mg/kg; ED50 ([17]; po): > 300 mg/kg
CC(=O)OCC1=C(C(=O)O)N2C(=O)C(NC(=O)Cc3cc(C)no3)C2SC1 (stereo not drawn) [Example XXII, 7-{[3-methyl-isoxazol-5-yl]acetamido}cephalosporanic acid] | 1 (≈ 2.53 µM) | – | 0.12 (≈ 0.303 µM) | 3 (≈ 7.59 µM) | – | 0.5 (≈ 1.26 µM) | 0.5 (≈ 1.26 µM) | – | – | – | 0.06 (≈ 0.152 µM) | 3 (≈ 7.59 µM) | 0.5 (≈ 1.26 µM) | 12.5 (≈ 31.6 µM) | 25 (≈ 63.2 µM) | 1 (≈ 2.53 µM) | – | – | – | – | ED50 ([18]; Staphylococcus aureus, A2001, in Mus musculus, sc, 168 h): 23 mg/kg; Potency Ratio ([18]; vs Cephalotin, S. aureus A 2001, subcutaneously, limits (0.73-4.92) printed): 1.90; concentration at 0.5 h ([19]; after 1/2 hr.): 45000 ng/mL; concentration at 0.25 h ([19]; after 1/4 hr.): 57500 ng/mL; concentration at 1 h ([19]; after 1 hr.): 12300 ng/mL; concentration at 2 h ([19]; after 2 hrs.): 1700 ng/mL; concentration at 4 h ([19]; after 4 hrs.): < 1000 ng/mL; dose excreted at 6 h ([20]; after 6 hrs.): 41.4%; dose excreted at 27 h ([20]; after 27 hrs.): 46.9%; fraction unbound ([21]; dialysis): 0.72; fraction unbound ([21]; ultrafiltration): 0.67; LD50 [22]: > 8000 mg/kg; ED50 ([23]; ip, 168 h, Escherichia coli 65161 i.p., method of administration intraperitoneal): 100 mg/kg; Potency Ratio ([23]; vs Cephalotin, E. coli 65161, intraperitoneal, limits (0.52-2.53) printed): 1.15
CCC(Oc1ccccc1)C(=O)N[C@@H]1C(=O)N2[C@@H]1SC(C)(C)[C@@H]2C(=O)O (stereo partly drawn) [Propicillin, reference compound] | – | – | – | – | 88 | – | – | 133 | > 215 | > 215 | – | – | – | – | – | – | – | 10.8 | 2.33 | – | ED50 ([5]; po): > 215 mg/kg; ED50 ([5]; sc): > 215 mg/kg
CC(=O)OCC1=C(C(=O)O)N2C(=O)C(NC(=O)Cc3cc(-c4c(C)cc(C)cc4C)no3)C2SC1 (stereo not drawn) [VII, Sodium salt of 7-{[3-(2,4,6-trimethyl)phenylisoxazol-5-yl]acetamido}cephalosporanic acid] | 0.25 | > 215 | 0.03 | 50 | – | 0.06 | 0.06 | 17.1 | > 215 | 140 | 0.015 | 50 | 0.03 | 12.5 | 1 | 0.12 | 3.8 | 70 | 18.5 | > 215 | ED50 ([2]; po): > 215 mg/kg; ED50 ([12]; ip): > 215 mg/kg; ED50 ([12]; po): > 215 mg/kg; ED50 ([17]; po): ~215 mg/kg
CC(=O)OCC1=C(C(=O)[O-])N2C(=O)C(NC(=O)Cc3onc(C)c3Cl)[C@H]2SC1.[Na+] (stereo partly drawn) [XXXV, Sodium 7{[3-methyl-4-chloroisoxazole-5 yl]acetamido}-3-acetoxymethyl-3-cephem-4carboxylate] | 0.5 | – | – | – | – | – | – | – | – | – | – | – | – | 0.06 | – | 0.5 | – | – | – | – | MIC ([3]; Streptococcus, A266, 24 h): 0.06 µg/mL; MIC ([4]; Klebsiella pneumoniae, A809, 24 h): 1.5 µg/mL; MIC ([6]; Staphylococcus aureus, A55, 24 h): 0.25 µg/mL; MIC ([7]; Staphylococcus aureus, A321, 24 h): 0.25 µg/mL; MIC ([9]; Bacillus subtilis, ATCC6633, 24 h): 0.06 µg/mL; MIC ([10]; Pasteurella multocida, A723, 24 h): 0.75 µg/mL; MIC ([11]; L54, 24 h): 1 µg/mL; MIC ([14]; L80, 24 h): 25 µg/mL
